The target in one data set is CYP2B6 (Homo sapiens, UniProt P20813). The experiment in a line: in vitro. Conditions: probe Buproprion.
Data set [1] is described as follows: CYP450 reaction phenotyping in human liver microsomes. In kind it is in vitro ADME. Conditions: human liver microsomes with and without selective CYP450 inhibitors. Here is the method:
CYP450 reaction phenotyping of Compound 2 was conducted by incubating the test article with human liver microsomes in the presence and absence of selective CYP450 inhibitors.

Data set [2] can be described thus: Oral PK and bioavailability of micronized Compound 2 suspension. In kind it is in vivo, dogs (beagles). Conditions: fasted dogs. Here is the method:
Additional studies were conducted with micronized Compound 2 in rat, dogs (beagles), and cynomolgus monkeys. Animals received a 10 mg/kg dose oral dose of compound formulated as a suspension in 0.5% methyl cellulose in water for injection at a target concentration of 1 mg/mL, and administered a dose volume of 10 mL/kg by oral gavage in rats or fasted dogs and via oral delivery in fasted cynomolgus monkeys. The % F for the rats in these studies was 85%, 36% for the dogs, and 19% for the monkeys. FIG. 11 depicts the pharmacokinetic profile for these species.
Three studies were conducted in dogs (beagles). In one study, three fasted dogs were administered 10 mg/kg of a suspension of micronized Compound 2 by gavage. Blood samples were collected from these dogs before dosing and at 0.25, 0.50, 1, 2, 4, 6, 8, 12, and 24 hours post-administration. Blood samples were analyzed to determine plasma levels of Compound 2 by LC/MS/MS. In subsequent studies, pharmacokinetic (PK) parameters were determined following a single oral dose of suspensions of micronized Compound 2 (recrystallized from ethanol) administered to fasted dogs at dose levels of 10, 100, 300, 600, or 1000 mg/kg. Blood samples were taken before dosing and at 0.5, 1, 2, 4, 8, 12, 24 and 48 hours post-dosing and analyzed to determine plasma levels of Compound 2.

Data set [3] in a line: Plasma levels in CFA cold hypersensitivity study. In kind it is in vivo, rat. The source says: Table 16 summarizes the average plasma levels of Compound 2 and Compound A. Approximately dose proportional exposures of Compound 2 were observed throughout the dose range tested. Decreased plasma binding of Compound 2 indicates an improved bioavailability of Compound 2 to the subjects over Compound A.

The target of the next data set is T1, rTRPA1 (Rattus norvegicus, UniProt Q6RI86).
T1 construct: expressed in transfected cells
Put plainly: TRPA1 IC50, whole-cell patch clamp. It counts as cell-based. Conditions: rTRPA1, 10 μM AITC; read-out: IC50 Inward current.

The target in a further data set is T2, human TRPA1 (hTRPA1) (Homo sapiens, UniProt O75762).
T2 construct: expressed in transfected cells
The experiment in a line: hTRPA1 IC50 in presence of albumin and plasma, whole-cell patch clamp. It counts as cell-based. The note with it: for IC50: 20 μM AITC. An excerpt:
The change in IC50 block in the presence of albumin and plasma was also studied. It is assumed that the pharmacological effect of a drug correlates to unbound plasma levels, which is known as the “free drug hypothesis”. The aim of this study was to estimate the change in IC50 for block of human TRPA1 (hTRPA1) by Compound 2 in the presence of physiologically relevant concentrations of albumin and plasma (see Table 7). The human form of TRPA1 was used to assess protein binding in all species due to technical issues. The whole-cell patch clamp technique as described in del Camino, D. et al. J Neurosci 74 (2010) 30:15165 was employed to measure current through hTRPA1 upon activation by allyl isothiocyanate (AITC), the active ingredient in mustard oil, in the presence of 1% (w/v) serum albumin or 25% (v/v) plasma from various species including human plasma (hPlasma), human serum albumin (HSA), rat plasma (rPlasma), rat serum albumin (RSA), dog plasma, and sheep serum albumin (sheepSA). Compound 2 was sub-diluted from a 10 mM stock in DMSO to 10 and 100 μM in DMSO, then diluted into Ringer solution at the concentrations referenced in Table 7 and Table 8.

Data set [4] in a line: Plasma protein binding, equilibrium dialysis. Conditions: pooled K2EDTA plasma. Here is the method: With this method, free compound is separated from protein-bound compound by dialysis across a semi-permeable membrane.
The protein binding was tested at a concentration of 1 μM. Pooled human, cynomolgus monkey, dog, and rat K2EDTA plasma was thawed and centrifuged at 2000×g for 10 minutes at 4° C. to remove particulates; any lipid on the top of the supernatant was also removed by aspiration. The plasma was warmed to 37° C. for 10 minutes before use. Test compounds were spiked into 2 ml plasma in a polypropylene plate to a final concentration of 1 μM. Triplicate 400 μl aliquots of spiked plasma were transferred into the Thermo RED dialysis units and dialyzed against 600 μl of PBS buffer. […] After 6 hours dialysis, triplicate 50 μl aliquots were removed from the RED plate, matrix-matched with either PBS buffer or blank plasma, as appropriate, and quenched with 4 volumes of ACN containing an internal standard. The extracted samples were then centrifuged at 2000×g for 5 minutes at 4° C. The supernatant (50 μl) was removed and diluted with 100 μl water prior to LC/MS/MS bioanalysis.

The source of these data is patent US20170050966A1, “INHIBITING THE TRANSIENT RECEPTOR POTENTIAL A1 ION CHANNEL” (HYDRA BIOSCIENCES, INC., priority 2014, published 2017).

Read-outs that look alike come from different tables or passages of the source.

T2 sequence (O75762 whole entry): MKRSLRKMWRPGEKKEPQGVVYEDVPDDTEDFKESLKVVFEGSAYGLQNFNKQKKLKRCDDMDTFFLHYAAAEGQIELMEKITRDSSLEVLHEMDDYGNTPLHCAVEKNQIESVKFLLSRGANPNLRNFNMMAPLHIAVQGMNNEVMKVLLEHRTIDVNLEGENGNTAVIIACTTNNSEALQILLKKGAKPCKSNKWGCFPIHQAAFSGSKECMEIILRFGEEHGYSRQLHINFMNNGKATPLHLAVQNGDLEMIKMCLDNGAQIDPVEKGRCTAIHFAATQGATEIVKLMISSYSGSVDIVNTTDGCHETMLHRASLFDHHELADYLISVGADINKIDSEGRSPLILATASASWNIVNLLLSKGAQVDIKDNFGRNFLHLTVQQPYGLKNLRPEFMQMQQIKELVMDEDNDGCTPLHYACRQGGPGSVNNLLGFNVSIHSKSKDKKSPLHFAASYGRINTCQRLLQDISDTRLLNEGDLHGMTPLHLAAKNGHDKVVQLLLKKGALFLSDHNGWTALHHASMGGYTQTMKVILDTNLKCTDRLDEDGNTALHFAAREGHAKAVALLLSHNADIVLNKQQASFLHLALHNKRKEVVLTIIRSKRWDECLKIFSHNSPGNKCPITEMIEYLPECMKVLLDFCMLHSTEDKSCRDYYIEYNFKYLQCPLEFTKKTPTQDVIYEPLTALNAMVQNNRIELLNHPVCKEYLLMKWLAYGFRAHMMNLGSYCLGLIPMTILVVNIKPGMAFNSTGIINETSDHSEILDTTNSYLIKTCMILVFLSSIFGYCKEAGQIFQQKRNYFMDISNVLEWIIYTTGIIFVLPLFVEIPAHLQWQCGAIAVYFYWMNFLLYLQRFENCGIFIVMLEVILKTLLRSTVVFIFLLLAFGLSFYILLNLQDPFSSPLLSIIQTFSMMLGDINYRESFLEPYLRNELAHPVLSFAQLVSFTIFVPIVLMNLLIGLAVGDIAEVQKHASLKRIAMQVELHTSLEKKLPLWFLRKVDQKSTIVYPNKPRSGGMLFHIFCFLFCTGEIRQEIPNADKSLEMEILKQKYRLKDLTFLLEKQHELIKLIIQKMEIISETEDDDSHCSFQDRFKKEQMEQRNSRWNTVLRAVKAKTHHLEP
CYP2B6, sequence (P20813 whole entry): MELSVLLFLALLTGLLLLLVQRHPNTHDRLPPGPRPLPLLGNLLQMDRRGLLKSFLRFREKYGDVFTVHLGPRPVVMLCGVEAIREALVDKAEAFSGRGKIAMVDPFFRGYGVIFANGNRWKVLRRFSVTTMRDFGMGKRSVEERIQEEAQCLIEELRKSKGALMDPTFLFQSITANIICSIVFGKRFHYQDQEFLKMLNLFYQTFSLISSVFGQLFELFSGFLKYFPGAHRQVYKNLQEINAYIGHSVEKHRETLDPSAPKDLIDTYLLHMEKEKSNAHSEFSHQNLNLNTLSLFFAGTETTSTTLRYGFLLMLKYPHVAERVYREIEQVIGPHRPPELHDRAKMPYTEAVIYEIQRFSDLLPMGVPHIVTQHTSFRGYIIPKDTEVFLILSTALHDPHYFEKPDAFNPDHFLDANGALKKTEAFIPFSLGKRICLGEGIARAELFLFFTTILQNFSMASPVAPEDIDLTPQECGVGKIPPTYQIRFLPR
T1 sequence (Q6RI86 whole entry): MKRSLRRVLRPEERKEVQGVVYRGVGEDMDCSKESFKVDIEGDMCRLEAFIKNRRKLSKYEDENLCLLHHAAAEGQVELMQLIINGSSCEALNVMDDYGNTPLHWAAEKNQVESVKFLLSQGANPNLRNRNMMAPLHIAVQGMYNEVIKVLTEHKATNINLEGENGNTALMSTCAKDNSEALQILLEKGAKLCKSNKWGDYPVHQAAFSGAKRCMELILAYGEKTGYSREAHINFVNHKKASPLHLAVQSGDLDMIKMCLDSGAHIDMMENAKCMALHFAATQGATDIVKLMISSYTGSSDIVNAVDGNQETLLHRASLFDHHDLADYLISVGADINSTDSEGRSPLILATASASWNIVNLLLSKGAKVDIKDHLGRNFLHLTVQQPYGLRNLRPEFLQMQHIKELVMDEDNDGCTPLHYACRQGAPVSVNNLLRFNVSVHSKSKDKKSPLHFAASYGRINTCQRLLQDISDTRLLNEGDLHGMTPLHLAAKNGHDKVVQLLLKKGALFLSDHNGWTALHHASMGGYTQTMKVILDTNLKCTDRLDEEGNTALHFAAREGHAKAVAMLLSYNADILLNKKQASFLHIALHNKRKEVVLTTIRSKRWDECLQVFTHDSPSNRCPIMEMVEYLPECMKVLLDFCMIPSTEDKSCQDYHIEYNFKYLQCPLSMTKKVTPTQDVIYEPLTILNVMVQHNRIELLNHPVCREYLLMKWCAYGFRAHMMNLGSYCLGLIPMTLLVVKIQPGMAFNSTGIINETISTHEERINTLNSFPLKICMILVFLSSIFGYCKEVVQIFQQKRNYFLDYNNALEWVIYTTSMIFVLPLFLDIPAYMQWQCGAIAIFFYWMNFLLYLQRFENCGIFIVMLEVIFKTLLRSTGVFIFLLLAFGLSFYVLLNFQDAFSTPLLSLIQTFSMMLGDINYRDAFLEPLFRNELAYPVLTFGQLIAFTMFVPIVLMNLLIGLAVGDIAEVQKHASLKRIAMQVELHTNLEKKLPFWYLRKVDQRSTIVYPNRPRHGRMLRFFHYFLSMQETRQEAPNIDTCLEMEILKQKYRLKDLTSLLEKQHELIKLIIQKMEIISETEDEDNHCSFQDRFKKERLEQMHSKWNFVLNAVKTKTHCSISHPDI

Regarding `C[C@@H](C(=O)Nc1ccnc(-c2cnc(N3CCC[C@H]3C(F)(F)F)nc2)n1)n1cnc2c1c(=O)n(C)c(=O)n2C` [Compound 2, (S)-2-(1,3-dimethyl-2,6-dioxo-2,3-dihydro-1H-purin-7(6H)-yl)-N-(2′-((S)-2-(trifluoromethyl)pyrrolidin-1-yl)-[2,5′-bipyrimidin]-4-yl)propanamide], the inhibition at 10 µM against CYP2B6 turned out to be 15.1%. In addition, in data set [1], the “CYP450 isozymes involved in in vitro metabolism” value is “involved mainly the CYP3A4 isozymes”. The same molecule yielded a bioavailability in data set [2] (beagle, dog, plasma, 10 mg/kg oral, micronized suspension) of 36%. In data set [2] (single oral dose 10 to 1000 mg/kg), the “Exposures on an AUC and Cmax basis versus dose” value is “increased with doses up to 600 mg/kg”. Also, the PLASMA was determined as 70 ± 11 ng/mL in data set [3] (0.3 mg/kg PO), 265 ± 56 ng/mL in data set [3] (1 mg/kg PO), 800 ± 160 ng/mL in data set [3] (3 mg/kg PO) and 2780 ± 425 ng/mL in data set [3] (10 mg/kg PO). The IC50 was 22.9 ± 4.6 nM at rTRPA1; 95 ± 9 nM on human TRPA1 (hTRPA1) (1% (w/v) rat serum albumin, read-out: IC50 + RSA); 70 ± 10 nM at human TRPA1 (hTRPA1) (1% (w/v) sheep serum albumin, read-out: IC50 + SheepSA); 221 ± 54 nM at human TRPA1 (hTRPA1) (25% (v/v) dog plasma, read-out: IC50 + dog Plasma); 95 ± 2 nM at human TRPA1 (hTRPA1) (25% (v/v) human plasma, read-out: IC50 + hPlasma); 68 ± 8 nM on human TRPA1 (hTRPA1) (25% (v/v) rat plasma, read-out: IC50 + rPlasma). Besides, the “Fold Shift” value is 14X on human TRPA1 (hTRPA1) (IC50 + RSA); 10X at human TRPA1 (hTRPA1) (IC50 + SheepSA); 32X at human TRPA1 (hTRPA1) (IC50 + dog Plasma); 14 X on human TRPA1 (hTRPA1) (IC50 + hPlasma vs IC50 in absence of serum); 10X on human TRPA1 (hTRPA1) (IC50 + rPlasma). The “binding to plasma proteins based on the shift in IC50” value on human TRPA1 (hTRPA1) (across the four species tested) was 90-97%. At human TRPA1 (hTRPA1) (hTRPA1 currents), the “time to complete block and reversal upon washout” value was 2 to 3 min. Besides, the fraction unbound at 6 h, 1 μM was 0.055 in data set [4] (beagle, dog) and 0.02 in data set [4] (cynomolgus monkey).
